Experimental data taken from patent US20210395327A1, “Growth Hormone-Releasing Hormone Antagonists and Uses Thereof” (United States Government As Represented By The Department …, priority 2019, published 2021).
“Also recorded” adds a separate entry of the source. Non-standard residues stand in square brackets, D forms with d. Residues, ends and D or L forms follow the SMILES beside them. *: point of attachment. Phenylacetyl(2,3,4,5,6-F5) = O=C(Cc1c(F)c(F)c(F)c(F)c1F)*; Phe(F5) = N[C@@H](Cc1c(F)c(F)c(F)c(F)c1F)C(=O)O; Phe(4-Cl) = N[C@@H](Cc1ccc(Cl)cc1)C(=O)O; hArg = N=C(N)NCCCC[C@H](N)C(=O)O; 12Ado = NCCCCCCCCCCCC(=O)O; Nle = CCCC[C@H](N)C(=O)O; Orn = NCCC[C@H](N)C(=O)O; Abu = CC[C@H](N)C(=O)O

Tests used:
[1] = system: GH release from rat pituitary cells; assay: Inhibition of GH release from rat pituitary cells in vitro (GH ELISA); assay type: cell-based; details: for Relative GH release: analogs 20 nM, then with 1 nM GHRH(1-29)NH2 for 30 minutes, Control = 1.00
Method: In vitro assessment of the antagonistic activity of GHRH analogs. Rats were decapitated and pituitaries were collected in pre-warmed HBSS (Hanks' Balanced Salt Solution). Tissue was then cut into small pieces and digested in HBSS medium containing 3% BSA, 50 μg/ml gentamycin and 0.5% collagenase for 50 minutes at 37° C. Cells were further dispersed by pipetting and passed through a 100 μm cell strainer with the addition of DMEM containing 50 μg/ml gentamycin. 10% horse serum and 2.5% FBS (growth medium). Cells were harvested at 475×g for 2 minutes, resuspended in fresh growth medium and seeded onto poly-D-lysine-coated 24-well plates (7 pituitaries/plate). Cells were left to recover for 4 days. Growth medium was then replaced with serum-free DMEM for 4 hours and GHRH analogs (at concentration of 20 nM) were added in DMEM containing 0.1% BSA for 30 minutes. Cells were replenished with medium containing the same concentration of the analogs and 1 nM GHRH(1-29)NH2 for 30 minutes. Medium from this step was collected, centrifuged at 800 g for 3 minutes and GH concentration was determined by ELISA (ALPCO Diagnostics, Mill Valley, Calif.) according to the manufacturer's instruction.

HCC827 lung cancer cells = assay: In vitro cell viability, HCC827; assay type: cell-based, human; details: for In vitro relative inhibitory potency in comparison to MIA-602, HCC827: Table 3B, 5 μM for 72 H, MIA-602 = 1
Summary of the method: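 Cells grown to ~60% confluence, serum-starved 24 h in 0.5% FBS medium, then exposed to compounds at 5 μM (some at 2 μM) or 0.1% DMSO vehicle for 72 h, in quintuplicate, medium changed every 48 h. Viability read by MTS-type CellTiter 96 AQueous assay; values are inhibitory potency relative to MIA602.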

HT-29 colon cancer cells = assay: In vitro cell viability, HT-29; assay type: cell-based, human; details: Table 3B; 5 μM for 72 H; MIA-602 = 1
Method: The inhibitory effects of the various synthesized GHRH antagonists were tested in cell proliferation assays in various human cancer cell lines including stomach cancer (KATOIII, N87), colon cancer (HT-29), urothelial cancer (J82, RT4), pancreatic cancer (PANC-1, CFPAC-1), prostatic cancer (PC3), breast cancer (MX-1, HCC1806), ovarian cancer (SK-OV-3, OVCAR-3) and lung cancer (HCC827, H460).
Cell culture. Human cancer cell lines including pancreatic (PANC-1 and CFPAC-1), lung (HCC827 and H460), stomach (NCI-N87 and KATOIII), urothelial (J82, RT4), prostatic (PC3), breast (MX-1 and HCC 1806), colorectal (HT-29), and ovarian (SK-OV-3 and OVCAR-3) were obtained from the American Type Culture Collection (ATCC) and cultured at 37° C. in a humidified 95% air/5% CO2 atmosphere in the medium recommended by ATCC.
In vitro cell viability. Cell viability was analyzed as follows: cancer cells including pancreatic (PANC-1 and CFPAC-1), lung (HCC827 and H460), stomach (NCI-N87 and KATOIII), urothelial (J82, RT4), prostatic (PC3) and breast (MX-1 and HCC 1806), colorectal (HT-29) and ovarian (SK-OV-3 and OVCAR-3) were grown on 96 well plates to ˜60% confluence, the cells were starved for 24 h in culture medium containing 0.5% FBS. Cells were then treated with GHRH antagonists MIA602 AVR compounds at concentrations of 1, 2.5 or 5 μM, or vehicle (0.1% DMSO) in quintuplicates for 72 hours. The medium was replaced every 48 hours. Cell viability was measured using CellTiter 96 aqueous one solution kit (Promega). Inhibitory effects of tested AVR compounds in comparison to that of MIA602 are presented as inhibitory potency.
Inhibitory effects of selected AVR compounds in comparison to that of MIA602 are presented as inhibitory potency (e.g., percentage of inhibition). […] The cell lines tested including lung cancer HCC827 (FIG. 2A), pancreatic cancer CFPAC-1 (FIG. 2B), stomach cancer N87 (FIG. 2C), colon cancer HT-29 (FIG. 2D), breast cancers MX-1 and HCC1806 (FIGS. 2 E, F). Based on the results of cell proliferation assay after cancer cells were treated with antagonist at concentration of 5 μM for 72H, the relative inhibitory potency of AVR antagonists in comparison to MIA-602 is summarized in Table 3 A and B. Over 60 AVR compounds were tested in 12 cancer cell lines.
Based on the results of cell proliferation assay after cancer cells were treated with antagonist at concentration of 5 µM for 72H, * at concentration of 2 µM for 72 H.

[2] = molecular target: T1, membrane GHRH-receptors on human anterior pituitary cells (Homo sapiens, UniProt Q02643); assay: Receptor binding, displacement of 125I-[His1,Nle27]-hGH-RH(1-32)NH2 on human pituitary membranes; details: for IC50: membrane receptors on human anterior pituitary cells, mean of two to three determinations, read-out: IC50
T1 construct: Human pituitary was purchased from the National Hormone and Peptide Program; tissue National Hormone and Peptide Program; host or cells: human pituitary (membrane fractions)
T1 sequence (Q02643 23-423): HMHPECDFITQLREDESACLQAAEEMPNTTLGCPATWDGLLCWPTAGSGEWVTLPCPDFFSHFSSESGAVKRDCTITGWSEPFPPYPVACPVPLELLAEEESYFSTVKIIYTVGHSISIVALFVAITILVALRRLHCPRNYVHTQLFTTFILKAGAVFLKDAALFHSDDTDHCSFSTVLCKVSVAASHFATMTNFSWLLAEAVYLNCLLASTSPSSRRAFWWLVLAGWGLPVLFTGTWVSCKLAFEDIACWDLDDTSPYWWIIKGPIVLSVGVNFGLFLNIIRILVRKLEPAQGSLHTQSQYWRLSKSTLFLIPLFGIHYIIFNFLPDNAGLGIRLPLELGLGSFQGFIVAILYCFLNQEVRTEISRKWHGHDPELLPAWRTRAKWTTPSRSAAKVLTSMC
Summary of the method: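 Membrane fractions from human pituitary; peptides displace 125I-[His1,Nle27]-hGH-RH(1-32)NH2. IC50 is the dose giving 50% inhibition of specific binding, from duplicate tubes. Relative affinity is the ratio of test IC50 to hGH-RH(1-29)NH2 IC50.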

SMILES | Relative GH release [1] | inhibitory effects on the release of GH, compared with MIA-602 (in words) ([1]; rat pituitary cells in vitro, 20 nM) | In vitro relative inhibitory potency in comparison to MIA-602, HCC827 (HCC827 lung cancer cells) | relative inhibitory potency in comparison to MIA-602, Lung IICC827 (HCC827 lung cancer cells; antagonist 5 μM for 72 h, cell proliferation assay, MIA602 = 1) | In vitro relative inhibitory potency in comparison to MIA-602, HT-29 (HT-29 colon cancer cells) | IC50 [2] | binding affinity to membrane receptors of human pituitary cells (in words) ([2]; competitive binding, human pituitary membrane fractions)
CCCC[C@H](NC(=O)[C@@H](NC(=O)[C@H](CC(=O)O)NC(=O)[C@H](CCC(N)=O)NC(=O)[C@H](CC(C)C)NC(=O)[C@H](CC(C)C)NC(=O)[C@H](CCCCN)NC(=O)[C@H](CCCNC(=N)N)NC(=O)[C@H](C)NC(=O)[C@H](CO)NC(=O)[C@H](CC(C)C)NC(=O)[C@H](CCC(N)=O)NC(=O)[C@H](CC)NC(=O)[C@H](CC(C)C)NC(=O)[C@@H](NC(=O)[C@H](CCCCN)NC(=O)[C@H](CCCNC(=N)N)NC(=O)[C@H](Cc1ccc(OC)cc1)NC(=O)[C@H](CCCCNC(=N)N)NC(=O)[C@H](C)NC(=O)[C@@H](NC(=O)[C@H](Cc1c(F)c(F)c(F)c(F)c1F)NC(=O)[C@@H](NC(=O)[C@H](C)NC(=O)[C@H](CC(=O)O)NC(=O)[C@@H](CCCNC(=N)N)NC(=O)[C@H](Cc1ccc(O)cc1)NC(=O)CCCCCCCCCCCNC(=O)Cc1c(F)c(F)c(F)c(F)c1F)[C@@H](C)CC)[C@@H](C)O)C(C)C)[C@@H](C)CC)C(=O)N[C@H](CCCNC(=N)N)C(=O)N[C@@H](CCCCNC(=N)N)C(=O)NC [AVR-235] ({Phenylacetyl(2,3,4,5,6-F5)-12Ado}-Y[dR]DAI[Phe(F5)]TA[hArg]Y(Me)RKVL[Abu]QLSARKLLQDI[Nle][dR][hArg]-NHMe) | 0.60 ± 0.02 | higher inhibitory effects than MIA-602 | 1.08 | 1.506 | 0.968 |  | 
CCCC[C@H](NC(=O)[C@@H](NC(=O)[C@H](CC(=O)O)NC(=O)[C@H](CCC(N)=O)NC(=O)[C@H](CC(C)C)NC(=O)[C@H](CC(C)C)NC(=O)[C@H](CCCCN)NC(=O)[C@H](CCCNC(=N)N)NC(=O)[C@H](C)NC(=O)[C@H](CO)NC(=O)[C@H](CC(C)C)NC(=O)[C@H](CCC(N)=O)NC(=O)[C@H](CC)NC(=O)[C@H](CC(C)C)NC(=O)[C@@H](NC(=O)[C@H](CCCCN)NC(=O)[C@H](CCCNC(=N)N)NC(=O)[C@H](Cc1ccc(OC)cc1)NC(=O)[C@H](CCCCNC(=N)N)NC(=O)[C@H](CC(N)=O)NC(=O)[C@@H](NC(=O)[C@H](Cc1ccc(Cl)cc1)NC(=O)[C@@H](NC(=O)[C@H](C)NC(=O)[C@H](CC(=O)O)NC(=O)[C@@H](CCCNC(=N)N)NC(=O)[C@H](Cc1ccc(O)cc1)NC(=O)CCCCCCCCCCCNC(=O)Cc1c(F)c(F)c(F)c(F)c1F)[C@@H](C)CC)[C@@H](C)O)C(C)C)[C@@H](C)CC)C(=O)N[C@H](CCCNC(=N)N)C(=O)N[C@@H](CCCCNC(=N)N)C(=O)NCCCCCCCCCCCC(N)=O [AVR-333, 5FPhAC-Ada-Tyr-DArg-Asp-Ala-Ile-Cpa-Thr-Asn-Har-Tyr(Me)-Arg-Lys-Val-Leu-Abu-Gln-Leu-Ser-Ala-Arg-Lys-Leu-Leu-Gln-Asp-Ile-Nle-DArg-Har-Ada-NH2] ({Phenylacetyl(2,3,4,5,6-F5)-12Ado}-Y[dR]DAI[Phe(4-Cl)]TN[hArg]Y(Me)RKVL[Abu]QLSARKLLQDI[Nle][dR][hArg][12Ado]-NH2) | 0.88 ± 0.03 |  | 1.177 |  |  | 0.3 nM | 
CCCC[C@H](NC(=O)[C@@H](NC(=O)[C@H](CC(=O)O)NC(=O)[C@H](CCC(N)=O)NC(=O)[C@H](CC(C)C)NC(=O)[C@H](CC(C)C)NC(=O)[C@H](CCCN)NC(=O)[C@H](Cc1c[nH]cn1)NC(=O)[C@H](C)NC(=O)[C@H](CO)NC(=O)[C@H](CC(C)C)NC(=O)[C@H](CCC(N)=O)NC(=O)[C@H](CC)NC(=O)[C@H](CC(C)C)NC(=O)[C@@H](NC(=O)[C@H](CCCN)NC(=O)[C@H](Cc1c[nH]cn1)NC(=O)[C@H](Cc1ccc(OC)cc1)NC(=O)[C@H](CCCCNC(=N)N)NC(=O)[C@H](C)NC(=O)[C@@H](NC(=O)[C@H](Cc1c(F)c(F)c(F)c(F)c1F)NC(=O)[C@@H](NC(=O)[C@H](C)NC(=O)[C@H](CC(=O)O)NC(=O)[C@@H](CCCNC(=N)N)NC(=O)[C@H](Cc1ccc(O)cc1)NC(=O)CCCCCCCCCCCNC(=O)Cc1c(F)c(F)c(F)c(F)c1F)[C@@H](C)CC)[C@@H](C)O)C(C)C)[C@@H](C)CC)C(=O)N[C@H](CCCNC(=N)N)C(=O)N[C@@H](CCCCNC(=N)N)C(=O)NCCCCCCCCCCCC(N)=O [AVR-553, 5FPhAC-Ada-Tyr-DArg-Asp-Ala-Ile-5FPhe-Thr-Ala-Har-Tyr(Me)-His-Orn-Val-Leu-Abu-Gln-Leu-Ser-Ala-His-Orn-Leu-Leu-Gln-Asp-Ile-Nle-DArg-Har-Ada-NH2] ({Phenylacetyl(2,3,4,5,6-F5)-12Ado}-Y[dR]DAI[Phe(F5)]TA[hArg]Y(Me)H[Orn]VL[Abu]QLSAH[Orn]LLQDI[Nle][dR][hArg][12Ado]-NH2) | 0.82 ± 0.04 |  | 2.582 |  |  | 0.15 nM | higher binding affinity in comparison to MIA-602; also recorded: highest binding affinities
